Measurements: paper PMC7044277 (Nature Communications, 2020)
Where “and” joins values, the source holds several entries; their conditions need not be identical. Equal values may be shown once.

How the values were obtained:
[1] = target: DRD2 (D2 long receptor) wild-type (Homo sapiens, UniProt P14416); assay: Radioligand competition binding, [3H]-N-methylspiperone, HEK293T membranes; conditions: DRD2; [3H]-methylspiperone (0.8-1.0 nM); read-out: Ki
[2] = target: T1, DRD4 (D4.4 variant) wild-type (Homo sapiens, UniProt P21917); assay: Radioligand competition binding, [3H]-N-methylspiperone; conditions: DRD4; [3H]-methylspiperone (0.8-1.0 nM); read-out: Ki
T1 sequence (P21917 1-419): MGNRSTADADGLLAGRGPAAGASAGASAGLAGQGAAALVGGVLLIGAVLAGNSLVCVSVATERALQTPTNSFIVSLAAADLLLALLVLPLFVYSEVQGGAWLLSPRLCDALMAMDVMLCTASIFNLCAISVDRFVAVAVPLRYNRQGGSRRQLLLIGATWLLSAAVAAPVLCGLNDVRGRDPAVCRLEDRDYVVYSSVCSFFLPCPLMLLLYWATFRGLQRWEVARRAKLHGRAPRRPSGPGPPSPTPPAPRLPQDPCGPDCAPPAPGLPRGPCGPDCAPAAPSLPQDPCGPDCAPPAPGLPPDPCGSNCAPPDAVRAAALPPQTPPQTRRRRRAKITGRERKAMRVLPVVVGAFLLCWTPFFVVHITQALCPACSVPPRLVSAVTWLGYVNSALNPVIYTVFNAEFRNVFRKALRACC

[3] = target: T2, DRD2 (D2 long receptor) (Homo sapiens, UniProt P14416); assay: Gαi/o-mediated cAMP inhibition (GloSensor split-luciferase cAMP reporter), HEK293T; assay type: cell-based; conditions: for Response, Fig_S11b dose-response: individual replicates;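 on all read-outs here: compounds applied 15 min at room temperature, then luciferin plus 400 nM isoproterenol to raise cAMP through endogenous β2-adrenergic receptors, luminescence read 15 min later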
[4] = target: T2, DRD2 (D2 long receptor); assay: β-arrestin2 recruitment (Tango), HTLA cells; assay type: cell-based; conditions: for Response, Fig_S11c dose-response: individual replicates; on response, Fig S11c dose-response source data: reference of the scale not given here
[5] = target: DRD3 wild-type (Homo sapiens, UniProt P35462); assay: Radioligand competition binding, [3H]-N-methylspiperone
[6] = target: DRD2 F1103.28A (Homo sapiens, UniProt P14416, F110A); assay type: binding; set-up: expressed in transfected cells; host or cells: HEK293T (ATCC CRL-11268); conditions: DRD2 F1103.28A
[7] = target: DRD3 (Homo sapiens, UniProt P35462); assay: β-arrestin2 recruitment (Tango); assay type: cell-based; conditions: DRD3; Tango; read-out: EC50 ± SEM
[8] = target: T3, DRD4 (D4.4 variant) (Homo sapiens, UniProt P21917); assay: Gαi/o-mediated cAMP inhibition (GloSensor); assay type: cell-based; conditions: DRD4; agonist, cAMP inhibition; read-out: EC50 ± SEM
T3 sequence (P21917 1-419): T1 sequence (P21917 1-419)

[9] = target: T3, DRD4 (D4.4 variant); assay: β-arrestin2 recruitment (Tango); assay type: cell-based; conditions: DRD4; Tango; read-out: EC50 ± SEM

T2 sequence (P14416 whole entry): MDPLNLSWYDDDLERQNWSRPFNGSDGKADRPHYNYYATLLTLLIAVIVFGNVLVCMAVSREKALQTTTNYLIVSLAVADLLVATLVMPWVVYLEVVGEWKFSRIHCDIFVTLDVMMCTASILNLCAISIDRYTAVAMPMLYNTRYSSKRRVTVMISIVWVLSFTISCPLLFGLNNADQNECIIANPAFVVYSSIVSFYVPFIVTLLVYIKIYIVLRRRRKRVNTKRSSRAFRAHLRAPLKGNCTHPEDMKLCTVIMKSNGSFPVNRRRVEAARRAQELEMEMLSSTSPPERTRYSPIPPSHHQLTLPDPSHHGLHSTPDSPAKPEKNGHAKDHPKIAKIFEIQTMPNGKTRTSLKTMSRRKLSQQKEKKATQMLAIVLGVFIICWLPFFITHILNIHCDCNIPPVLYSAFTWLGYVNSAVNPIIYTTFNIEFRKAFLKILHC
Chain of DRD2 F1103.28A (P14416 whole entry F110A): as the sequence (P14416 whole entry) above, with F110A counted along it
Chain of DRD3 wild-type (P35462 whole entry): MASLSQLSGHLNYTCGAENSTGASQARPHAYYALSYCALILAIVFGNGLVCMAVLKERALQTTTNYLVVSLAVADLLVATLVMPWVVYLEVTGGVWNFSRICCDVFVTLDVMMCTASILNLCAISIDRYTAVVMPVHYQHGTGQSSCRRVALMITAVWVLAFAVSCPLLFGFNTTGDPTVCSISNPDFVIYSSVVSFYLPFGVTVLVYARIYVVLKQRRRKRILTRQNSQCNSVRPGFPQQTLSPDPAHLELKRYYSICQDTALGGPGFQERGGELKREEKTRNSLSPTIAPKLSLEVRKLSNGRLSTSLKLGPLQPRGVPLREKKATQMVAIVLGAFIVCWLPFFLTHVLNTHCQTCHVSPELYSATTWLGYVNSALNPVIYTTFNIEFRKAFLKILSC
Chain of DRD3 (P35462 whole entry): as above
Chain of DRD2 (D2 long receptor) wild-type (P14416 whole entry): as the sequence (P14416 whole entry) above

CC(NCC1(O)CCCCC1)c1cc2cccc(O)c2o1.Cl (stereo not drawn) [O2LE6] was tested. Which Ki [1] did it give?
The Ki was over 10 µM.

What about the Ki [2] of the same compound?
Its Ki is over 10 µM.

What about the EC50 ([3]; DRD2, agonist, Gαi/o-mediated cAMP inhibition, read-out: EC50 ± SEM) of the same compound?
Its EC50 is over 10 µM.

And the “Response, Fig_S11b dose-response” value ([3]; Log[Drug] -5)?
The value was 2.57 and -6.2065 and 9.406 and 22.878 and 21.3481 and -11.9066 and 1.916.

What about the “Response, Fig_S11b dose-response” value ([3]; Log[Drug] -5.52) of the same compound?
The value was 6.28 and 4.868 and 17.437 and 8.981 and 7.366 and 4.306 and -2.8216 and 10.8339 and 3.867.

What about the “Response, Fig_S11b dose-response” value ([3]; Log[Drug] -6) of the same compound?
The value was -4.6609 and -0.5921.

And the “Response, Fig_S11b dose-response” value ([3]; Log[Drug] -6.52)?
Its value is -4.5336 and 10.5534 and 15.2708 and -15.8082 and -11.6836.

What about the “Response, Fig_S11b dose-response” value ([3]; Log[Drug] -7) of the same compound?
Its value is 2.459 and 17.8523 and -17.1557 and -9.0384 and -5.1068 and -4.6609 and -7.169.

And the “Response, Fig_S11b dose-response” value ([3]; Log[Drug] -7.52)?
Its value is -18.3605 and -3.0503 and 3.567 and -20.6831 and -11.3334 and 8.381 and -20.49.

What about the “Response, Fig_S11b dose-response” value ([3]; Log[Drug] -8) of the same compound?
Its value is -13.294 and 23.168 and -7.9784 and -20.598 and -10.4409 and -9.4634 and -20.4343.

What about the “Response, Fig_S11b dose-response” value ([3]; Log[Drug] -8.52) of the same compound?
The value was 0.7703 and -10.5254 and -9.1135 and 3.329 and -12.6933 and -0.7512 and -34.034 and -13.4672 and -11.5164.

What about the “Response, Fig_S11b dose-response” value ([3]; Log[Drug] -9) of the same compound?
The value was 2.182 and 8.19 and 4.563 and -3.0886 and 6.152 and -13.6902 and -0.3134.

And the “Response, Fig_S11b dose-response” value ([3]; Log[Drug] -9.52)?
Its value is -7.1755 and -21.4059 and -24.6779 and -18.9406 and -5.1068 and 6.486.

And the “Response, Fig_S11b dose-response” value ([3]; Log[Drug] -10)?
The value was -19.2464 and 38.0628 and -6.9263 and -30.0753 and -2.0262 and 6.261 and -22.9424 and -9.1198 and -15.8639.

What about the “Response, Fig_S11b dose-response” value ([3]; Log[Drug] -10.52) of the same compound?
Its value is -15.9241 and -8.3937 and 23.898 and 3.978 and -13.6344.

And the “Response, Fig_S11b dose-response” value ([3]; Log[Drug] -11)?
The value was -21.7935 and 4.314 and -22.2642 and -20.2156 and 2.7337 and -9.1755.

And the “Response, Fig_S11b dose-response” value ([3]; Log[Drug] -11.52)?
Its value is 5.117 and 27.9022 and 12.3983 and -0.5921 and -2.4314 and -6.9461.

What about the “Response, Fig_S11b dose-response” value ([3]; Log[Drug] -12) of the same compound?
The value was 6.64 and -0.2818 and -18.9406 and 16.0358 and 13.8258 and -18.8737 and -20.713 and -0.5921.

And the EC50 ([4]; DRD2, β-arrestin2 recruitment (Tango), read-out: EC50 ± SEM)?
The EC50 was over 10 µM.

And the “response, Fig_S11c dose-response source data” value ([4]; Fig_S11c, Log[Drug] -5, replicate values)?
The value was 16.7808 and 14.8237 and 14.215 and 18.5342 and 14.2817 and 15.7604 and 11.4227 and 17.086 and 21.2736.

What about the “Response, Fig_S11c dose-response” value ([4]; Log[Drug] -6.52) of the same compound?
The value was 3.717.

What about the “Response, Fig_S11c dose-response” value ([4]; Log[Drug] -7) of the same compound?
Its value is 2.811 and 3.15 and 4.053 and 3 and 2.812 and 3.498 and 5.616 and 3.218 and 2.5633.

And the “Response, Fig_S11c dose-response” value ([4]; Log[Drug] -7.52)?
Its value is 2.895 and 3.102 and 3.119 and 2.48 and 2.571 and 2.809 and 3.052 and 1.009 and 2.448.

What about the “Response, Fig_S11c dose-response” value ([4]; Log[Drug] -8) of the same compound?
Its value is 2.815 and 2.652 and 3.1462 and 2.523 and 2.762 and 2.623 and 2.494 and 3.6148 and 1.539.

What about the “Response, Fig_S11c dose-response” value ([4]; Log[Drug] -8.52) of the same compound?
Its value is 3.296 and 2.4132 and 3.209 and 2.229 and 3.453 and 2.266 and 3.066 and 1.184 and 1.383.

What about the “Response, Fig_S11c dose-response” value ([4]; Log[Drug] -9) of the same compound?
Its value is 2.8445 and 2.312 and 2.494 and 3.046 and 2.174 and 2.343 and 1.927 and 6.732 and 6.534.

And the “Response, Fig_S11c dose-response” value ([4]; Log[Drug] -9.52)?
The value was 2.362 and 2.4976 and 2.923 and 2.359 and 2.154 and 2.345 and 3.43 and 1.364 and 3.781.

And the “Response, Fig_S11c dose-response” value ([4]; Log[Drug] -10)?
Its value is 3.645 and 2.627 and 2.787 and 2.06 and 2.1828 and 2.292 and 2.6786 and 2.1344 and 1.378.

What about the “Response, Fig_S11c dose-response” value ([4]; Log[Drug] -10.52) of the same compound?
Its value is 2.259 and 2.232 and 2.66 and 2.1982 and 2.238 and 2.169 and 4.722 and 1.378 and 2.323.

What about the “Response, Fig_S11c dose-response” value ([4]; Log[Drug] -11) of the same compound?
The value was 2.37 and 2.502 and 2.312 and 2.1828 (2×) and 2.084 and 1.9407 and 3.057 and 2.849.

And the “Response, Fig_S11c dose-response” value ([4]; Log[Drug] -11.52)?
The value was 2.185 and 2.208 and 2.688 and 2.5566 and 2.233 and 3.071 and 1.779 and 1.392 and 2.508.

And the “Response, Fig_S11c dose-response” value ([4]; Log[Drug] -12)?
Its value is 2.133 and 2.211 and 2.421 and 5.046 and 2.173 and 2.317 and 0.6771 and 1.599 and 1.023.

What about the Ki ([5]; DRD3, [3H]-methylspiperone (0.8-1.0 nM), read-out: Ki) of the same compound?
Its Ki is 3.47 µM.

What about the “pKi ± SEM” value ([5]; DRD3 wild-type) of the same compound?
The value was 5.46±0.10.

What about the “pKi ± SEM” value [6] of the same compound?
Its value is 5.24±0.17.

And the Ki ([6]; read-out: Ki)?
Its Ki is 5.75 µM.

What about the EC50 [7] of the same compound?
Its EC50 is over 10 µM.

And the EC50 [8]?
Its EC50 is over 10 µM.

And the EC50 [9]?
Its EC50 is over 10 µM.
